From patent publication US10517889B2, “Modulators of SMAD7 expression” (Ionis Pharmaceuticals, Inc., priority 2017, dated 2019)
Strand notation (5' to 3'): a small letter for the sugar, then the base; units joined by * are phosphorothioate-linked, units joined directly phosphodiester-linked; [ ] holds rarer units or linkages, { } end groups; capitals alone tell only the bases. e = 2'-O-(2-methoxyethyl) (MOE); [5mC] = 5-methylcytosine; d = 2'-deoxy (DNA)

Tested on: human SMAD7 mRNA
Experiment: Antisense inhibition of human SMAD7 mRNA expression in Hep3B cells by 5-10-5 MOE gapmers, single concentration, electroporation, RT-PCR (Example 1, Study 1 and 2)
Assay type: cell-based
In short: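 Readout is percent SMAD7 mRNA inhibition versus untreated cells, measured by qRT-PCR (RTS5062) and corrected for total RNA by RIBOGREEN. Oligonucleotide, 5,000 nM or 15,000 nM, was delivered by electroporation into Hep3B cells at 20,000 per well. RNA was collected about 24 h later.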

[1] = electroporation, 15,000 nM antisense oligonucleotide (Study 2), 5-10-5 MOE gapmers targeting SEQ ID NO: 1 and 2
[2] = electroporation with 15,000 nM antisense oligonucleotide (Study 2), 5-10-5 MOE gapmers targeting SEQ ID NO: 1 and 2
[3] = Study 2, electroporation with 15,000 nM antisense oligonucleotide, 5-10-5 MOE gapmers targeting SEQ ID NO: 1 and 2
[4] = electroporation, 5,000 nM, approximately 24 hours, relative to untreated control cells, gapmers targeting SEQ ID NO: 1 and 2
[5] = electroporation, 15,000 nM, approximately 24 hours, relative to untreated control cells, gapmers targeting SEQ ID NO: 1 and 2

Row | Substance | % inhibition of SMAD7 mRNA expression [1] [%] | % Inhibition [3] [%] | also measured
1 | 771729 (antisense eT*eG*e[5mC]*eT*e[5mC]*d[5mC]*dA*dG*d[5mC]*dT*d[5mC]*d[5mC]*dA*dG*dA*e[5mC]*e[5mC]*eT*eG*eG) [compound 771729] | 35 |  | 
2 | 771696 (antisense e[5mC]*eT*e[5mC]*eT*e[5mC]*d[5mC]*d[5mC]*dA*dG*dG*dA*dG*dG*dG*dT*eA*eT*eG*e[5mC]*eA) [compound 771696] | 0 |  | % Inhibition of SMAD7 mRNA [2]: 0%
3 | 771875 (antisense e[5mC]*e[5mC]*e[5mC]*e[5mC]*eG*dT*dG*d[5mC]*dA*d[5mC]*dT*d[5mC]*d[5mC]*d[5mC]*dA*eG*e[5mC]*e[5mC]*e[5mC]*eT) [compound 771875] |  | 51 | % inhibition of SMAD7 mRNA expression [4]: 42%
4 | 771420 (eG*e[5mC]*e[5mC]*e[5mC]*eG*dG*dG*d[5mC]*d[5mC]*dG*d[5mC]*d[5mC]*dG*d[5mC]*d[5mC]*eA*e[5mC]*e[5mC]*eG*eG; antisense) [compound 771420] |  | 54 | % inhibition of SMAD7 mRNA expression [4]: 1%
5 | 771714 (antisense eT*e[5mC]*eT*eG*eG*dA*d[5mC]*dT*dA*dA*dA*dG*d[5mC]*dT*dT*e[5mC]*e[5mC]*eA*e[5mC]*eG) [compound 771714] | 44 |  | 
6 | 771757 (antisense eT*e[5mC]*e[5mC]*e[5mC]*e[5mC]*dT*dT*dT*dT*dT*dT*dA*dA*dT*dT*eG*eA*eG*eG*eA) [compound 771757] |  |  | % inhibition of SMAD7 mRNA expression [5]: 48%
7 | 771791 (antisense eG*eA*eG*eG*eA*dG*dG*dG*dA*dG*dA*dA*dA*d[5mC]*dT*e[5mC]*e[5mC]*eT*e[5mC]*eA) [compound 771791] |  | 22 | 
8 | 771382 (antisense eA*eA*eA*eT*eA*dA*dA*dA*dA*d[5mC]*dA*d[5mC]*d[5mC]*dA*dA*eG*eA*eT*e[5mC]*e[5mC]) [compound 771382] |  | 0 | % inhibition of SMAD7 mRNA expression [4]: 55%
9 | 771867 (antisense eA*e[5mC]*eT*eG*eG*dG*d[5mC]*dT*dT*d[5mC]*dA*dG*d[5mC]*dA*dA*eA*eG*eA*eT*eA) [compound 771867] |  | 19 | % inhibition of SMAD7 mRNA expression [4]: 39%
10 | 771702 (antisense eA*eG*eG*eG*eT*dA*dT*dG*d[5mC]*dA*d[5mC]*dA*d[5mC]*dT*d[5mC]*eT*e[5mC]*e[5mC]*e[5mC]*eA) [compound 771702] |  | 24 | 
11 | 771668 (antisense e[5mC]*eT*e[5mC]*eT*e[5mC]*dA*dA*dA*dG*d[5mC]*dA*d[5mC]*dT*dA*d[5mC]*eA*eA*eT*eG*e[5mC]) [compound 771668] |  |  | % inhibition of SMAD7 mRNA expression [3]: 9%
12 | 771401 (antisense eG*e[5mC]*eA*eG*eG*d[5mC]*dG*dA*d[5mC]*dA*dG*d[5mC]*dA*dG*d[5mC]*eA*eG*e[5mC]*eA*eG) [compound 771401] |  | 21 | 
13 | 771893 (antisense eG*eT*e[5mC]*eA*eT*d[5mC]*d[5mC]*dG*dT*d[5mC]*d[5mC]*dA*d[5mC]*dT*dG*eT*e[5mC]*eT*eG*e[5mC]) [compound 771893] |  |  | % inhibition of SMAD7 mRNA expression [5]: 35%
14 | 771437 (eG*e[5mC]*e[5mC]*eT*eG*dG*dA*dG*d[5mC]*dA*dG*d[5mC]*dA*dG*d[5mC]*eT*e[5mC]*e[5mC]*eA*eG; antisense) [compound 771437] |  | 0 | 
15 | 771366 (antisense eT*eG*e[5mC]*eT*eG*dA*dT*dT*dA*dT*dT*dA*dA*dT*dG*eG*eT*e[5mC]*eT*eG) [compound 771366] |  | 0 | % inhibition of SMAD7 mRNA expression [4]: 49%
16 | 771452 (antisense eG*eG*eT*eA*eT*d[5mC]*dT*dG*dG*dA*dG*dT*dA*dA*dG*eG*eA*eG*eG*eG) [compound 771452] |  | 55 | % inhibition of SMAD7 mRNA expression [4]: 25%
17 | 771694 (antisense e[5mC]*eT*e[5mC]*e[5mC]*e[5mC]*dA*dG*dG*dA*dG*dG*dG*dT*dA*dT*eG*e[5mC]*eA*e[5mC]*eA) [compound 771694] |  | 0 | 
18 | 771504 (antisense e[5mC]*eA*eG*e[5mC]*eT*d[5mC]*dA*d[5mC]*dG*d[5mC]*dT*d[5mC]*dT*dG*dT*e[5mC]*e[5mC]*e[5mC]*e[5mC]*eT) [compound 771504] |  |  | % inhibition of SMAD7 mRNA expression [3]: 48%
19 | 771749 (antisense eG*eA*eA*eA*eT*dG*dG*dA*dG*dT*dT*dA*d[5mC]*dT*dT*eG*eT*eT*eA*eA) [compound 771749] |  |  | % inhibition of SMAD7 mRNA expression [5]: 29%
20 | 771857 (antisense e[5mC]*eG*eT*e[5mC]*eT*dT*dA*dT*dT*dG*dT*dT*dT*dT*dT*eG*eT*eT*e[5mC]*e[5mC]) [compound 771857] | 29 |  | 
21 | 771780 (antisense eA*e[5mC]*eA*eA*eA*d[5mC]*d[5mC]*dT*dT*d[5mC]*d[5mC]*dG*dA*dA*dA*eG*eG*eA*e[5mC]*e[5mC]) [compound 771780] |  | 20 | 

Row | Substance | % inhibition of SMAD7 mRNA expression [1] [%] | % Inhibition [3] [%] | also measured
22 | 771375 (antisense e[5mC]*eT*eA*eA*eA*d[5mC]*dA*dG*d[5mC]*dA*dT*dG*dA*dA*dA*eG*eA*e[5mC]*eA*eA) [compound 771375] |  | 4 | 
23 | 771847 (antisense e[5mC]*eA*eT*e[5mC]*eA*d[5mC]*d[5mC]*dT*dT*d[5mC]*dG*dG*dA*d[5mC]*dA*eA*eG*e[5mC]*e[5mC]*eA) [compound 771847] |  | 53 | 
24 | 771646 (antisense eT*eA*eT*eG*eA*dG*dT*dT*dG*dT*dA*dG*dA*dA*dG*eA*eA*eA*eT*eG) [compound 771646] |  |  | % inhibition of SMAD7 mRNA expression [3]: 0%
25 | 771681 (antisense eT*eT*eT*eG*e[5mC]*dA*dT*dT*dT*dA*dT*dA*dT*dT*dA*eA*eA*eG*e[5mC]*eA) [compound 771681] |  |  | % inhibition of SMAD7 mRNA expression [2]: 0%
26 | 771809 (antisense eA*e[5mC]*e[5mC]*eT*eG*dA*dG*dT*d[5mC]*d[5mC]*d[5mC]*d[5mC]*d[5mC]*dA*dA*eA*eG*eT*e[5mC]*e[5mC]) [compound 771809] | 7 |  | 
27 | 771388 (antisense eG*e[5mC]*eG*e[5mC]*e[5mC]*d[5mC]*dT*dG*d[5mC]*dG*d[5mC]*dG*dG*d[5mC]*dT*e[5mC]*eT*e[5mC]*e[5mC]*eG) [compound 771388] | 31 |  | 
28 | 771876 (antisense e[5mC]*eG*eA*eG*e[5mC]*dT*d[5mC]*d[5mC]*d[5mC]*dT*d[5mC]*d[5mC]*d[5mC]*dT*dG*eG*e[5mC]*e[5mC]*e[5mC]*e[5mC]) [compound 771876] |  | 0 | 
29 | 771483 (antisense eA*e[5mC]*eG*eG*e[5mC]*dT*dG*d[5mC]*dT*dG*d[5mC]*dA*dT*dA*dA*eA*e[5mC]*eT*e[5mC]*eG) [compound 771483] | 22 |  | 
30 | 771936 (antisense eT*eG*eT*eT*eT*d[5mC]*dT*dG*dT*dG*dT*dG*d[5mC]*dA*d[5mC]*eA*eT*eA*e[5mC]*eG) [compound 771936] | 36 |  | % Inhibition of SMAD7 mRNA [2]: 32%
31 | 771599 (antisense eG*e[5mC]*eA*eG*eG*dA*dA*dG*dG*dG*dA*dA*dT*dA*dA*eG*eA*e[5mC]*eA*eA) [compound 771599] |  |  | % inhibition of SMAD7 mRNA expression [3]: 39%
32 | 771709 (antisense eT*eG*eA*eA*e[5mC]*d[5mC]*d[5mC]*dT*d[5mC]*dA*d[5mC]*dA*dT*d[5mC]*dA*e[5mC]*eA*e[5mC]*eT*e[5mC]) [compound 771709] |  |  | % inhibition of SMAD7 mRNA expression [5]: 38%
33 | 771480 (antisense eA*eG*e[5mC]*e[5mC]*eT*dT*dG*dA*dT*dG*dG*dA*dG*dA*dA*eA*e[5mC]*e[5mC]*eG*eG) [compound 771480] |  |  | % inhibition of SMAD7 mRNA expression [3]: 46%
34 | 771721 (antisense e[5mC]*e[5mC]*e[5mC]*eA*eG*d[5mC]*dA*d[5mC]*dT*dG*dT*dG*dA*dT*dG*eT*e[5mC]*e[5mC]*eA*eG) [compound 771721] | 43 |  | 
35 | 771810 (antisense eG*eG*e[5mC]*eA*e[5mC]*dT*dG*d[5mC]*dA*dG*dA*dA*dG*dA*dG*eG*e[5mC]*eG*eG*eG) [compound 771810] | 46 |  | 
36 | 771883 (antisense eA*eG*e[5mC]*eT*eG*dG*d[5mC]*dA*d[5mC]*dT*dG*dA*dA*dT*dG*e[5mC]*eT*eG*eA*eT) [compound 771883] |  | 26 | % inhibition of SMAD7 mRNA expression [4]: 0%
37 | 771405 (antisense eA*eG*e[5mC]*eG*eA*dA*d[5mC]*dA*dT*dG*dA*d[5mC]*d[5mC]*dT*d[5mC]*e[5mC]*eG*e[5mC]*eA*e[5mC]) [compound 771405] |  | 25 | 
38 | 771568 (antisense e[5mC]*eT*eG*e[5mC]*eA*dA*dA*d[5mC]*d[5mC]*dT*d[5mC]*dT*d[5mC]*dT*dG*e[5mC]*eT*eG*eG*eG) [compound 771568] | 17 |  | % Inhibition of SMAD7 mRNA [2]: 26%
39 | 771945 (antisense eT*eT*eA*eT*eG*dT*dG*dT*d[5mC]*dT*d[5mC]*dA*dA*dA*dT*eA*eG*eA*eT*eG) [compound 771945] | 0 |  | 
40 | 771752 (antisense eA*eA*eT*eG*eT*d[5mC]*d[5mC]*d[5mC]*dT*dG*dT*dG*dG*dG*dT*eT*eT*e[5mC]*e[5mC]*eA) [compound 771752] | 0 |  | % Inhibition of SMAD7 mRNA [2]: 3%
41 | 771553 (antisense eT*eG*eG*eT*eG*d[5mC]*dT*dT*dG*dG*dA*dT*dT*dT*d[5mC]*eT*eG*e[5mC]*eT*eT) [compound 771553] | 38 |  | 
42 | 771520 (antisense eA*eT*eG*eA*eA*dA*dA*dG*d[5mC]*dA*dA*dG*d[5mC]*dA*d[5mC]*eT*e[5mC]*eA*eG*eG) [compound 771520] | 12 |  | % Inhibition of SMAD7 mRNA [2]: 37%
